Structures can show the parent of a compound that is named as a salt. Where two headings read alike, the source gives them in different places.
Experiments:
[1] = Triapine pharmacokinetics in plasma and erythrocytes; type: in vivo, human; details: for Tmax: 45 mg/m2, Tmax, Triapine 25 or 45 mg/m2, cycle 1 day 1
[2] = tested on: Madison 109 (M109) lung tumors; details: twice daily intra-peritoneal for 5-6 days at 8-10 mg/kg/dose; cited from earlier work
A2780 ovarian tumors = details: twice daily intra-peritoneal for 5-6 days at 8-10 mg/kg/dose; cited from earlier work
[3] = Phase 1 dose escalation: toxicity, DLT and MTD of Triapine with doxorubicin; type: in vivo, human
L1210 leukemia = details: murine models; cited from earlier work
[4] = cited from earlier work
clinical = details: human
[5] = cited from earlier work; remark: listed apart in the source
[6] = Doxorubicin pharmacokinetics in plasma; details: mean
[7] = human, erythrocytes, intravenous
[8] = 2 hour IV infusions for 5 days of every 28 day cycle

SMILES: NC(=S)NN=Cc1ncccc1N [Triapine, 3-aminopyridine-2-carboxaldehyde thiosemicarbazone]
- Cmax ([1]; erythrocytes, dose adjusted, mean): 710 ng/mL
- Cl ([1]; erythrocytes, mean): 0.34 mL/min/m^2
- Vss ([1]; erythrocytes, mean): 83 L/m^2
- AUC(0-inf) [1, 7]: 1450 ng·h/mL
- Cmax [1, 7]: 710 ± 180 ng/mL
- half-life ([1]; human, erythrocytes, intravenous, 45 mg/m2): 4.2 h
- Tmax ([1]; human, erythrocytes, intravenous, erythrocytes, mean): 0.04 h
- AUC(0-inf) ([1]; human, plasma, intravenous): 1210 ng·h/mL
- Cmax ([1]; human, plasma, intravenous): 650 ± 180 ng/mL
- Tmax ([1]; human, plasma, intravenous, plasma, mean): 0.22 ± 0.11 h
- half-life ([1]; human, plasma, iv): 5.3 h
- Cmax ([1]; plasma, dose adjusted, mean): 650 ng/mL
- Cl ([1]; plasma, mean): 0.38 mL/min/m^2
- Vss ([1]; plasma, mean): 107 L/m^2
- effect on tumors [2]: effective
- effect on tumors (A2780 ovarian tumors): effective
- recommended phase II combination dose ([3]; Triapine 2 hour infusion on days 1-4): 25 mg/m^2
- anti-tumor activity (L1210 leukemia): displayed anti-tumor activity
- major DLT ([4]; 2-hour infusion daily x 5 schedule): transient neutropenia
- patients with grade 2 anemia [4, 8]: 73%
- patients with grade 3 anemia [4, 8]: 22%
- patients with grade 3 or 4 thrombocytopenia [4, 8]: 22%
- patients with grade 4 leucopenia in at least one course [4, 8]: 93%
- single-agent MTD [4, 8]: 96 mg/m^2
- toxicities associated with the infusion ([4]; 2 hour infusion of ≥ 140 mg/m^2): reversible hypotension, hypoxia, dyspnea, cough, and EKG changes including ST-T wave changes and prolongation of the QT interval
- DLTs ([4]; single 2-hour IV infusion every 4 weeks, doses up to 105 mg/m^2): no DLTs were observed
- anti-tumor activity ([4]; single 2-hour IV infusion every 4 weeks): no anti-tumor activity was observed
- recommended phase II dose ([4]; single agent, daily for 4 days): 96 mg/m2

SMILES: COc1cccc2c1C(=O)c1c(O)c3c(c(O)c1C2=O)C[C@@](O)(C(=O)CO)C[C@@H]3O[C@H]1C[C@H](N)[C@H](O)[C@H](C)O1 [doxorubicin, Doxorubicin hydrochloride]
- recommended phase II combination dose ([3]; doxorubicin IV bolus on day 1 immediately following Triapine): 60 mg/m^2
- half-life (clinical; in vivo, iv): 10.1 h
- Tmax (clinical; plasma, intravenous): 0.2 h
- incidence of CHF ([5]; cumulative dose 450 mg/m^2): 4%
- incidence of CHF ([5]; cumulative dose up to 300 mg/m^2): 1%
- patients with leucopenia ([5]; doxorubicin 60 mg/m^2 every 21 days): approximately 75%
- Cl [6]: 252 mL/min/m^2
- Vss [6]: 219 L/m^2

Reference: publication PMC3050713 (Cancer chemotherapy and pharmacology, 2008)
